Measurements taken from US20170029841A1, “METHODS AND COMPOSITIONS FOR SELECTIVE REGULATION OF PROTEIN EXPRESSION” (priority 2015, published 2017).

Tested on: maize tissue pools (tassel, ear, leaf, root, stem)
Experiment: siRNA profiling microarray assay of mts-siRNA sequences across maize tissues
Conditions: for 01DKD2 V8-V9 Tassel relative signal value: germplasm 01DKD2, V8-V9 tassel; for 01DKD2 V10-V12 Tassel relative signal value: germplasm 01DKD2, V10-V12 tassel; for 01DKD2 Other Tissue relative signal value: germplasm 01DKD2, combined signals from other tissue; for LH244 V8-V9 Tassel relative signal value: germplasm LH244, V8-V9 tassel; for LH244 V10-V12 Tassel relative signal value: germplasm LH244, V10-V12 tassel; for LH244 Other Tissue relative signal value: germplasm LH244, combined signals from other tissue
Method: A siRNA profiling microarray assay was performed using μParaflo® Microfluidics chips provided by LC Sciences LLC (Houston, Tex., USA) with 1,200 sequences selected from the thousands of mts-siRNA sequences identified from the differential bioinformatic analysis. The microarray chips contained triplicate probes of the complementary sequence for each of the 1,200 mts-siRNA sequences. Total RNA was purified from 26 maize tissue pools (duplicate or triplicate tissue pools) from either LH244 (ATCC deposit number PTA-1173) or 01DKD2 (I294213) (ATCC deposit number PTA-7859) inbred plants. Each of the 26 RNA samples were hybridized with the microarray chips that contain probes for the 1,200 mts-siRNA. Hybridization images were collected using a GenePix® 4000B laser scanner (Molecular Devices, Sunnyvale, Calif.) and digitized using Array-Pro® Analyzer image analysis software (Media Cybernetics, Rockville, Md.). Relative signal values were derived by background subtraction and normalization. Differentially expressed signals were determined by t-test with p<0.05. From the microarray analysis, about 500 mts-siRNA from the 1,200 were identified as being highly tassel-specific.
Selected mts-siRNA sequences aligning to one of the six cDNA sequences were used for further microarray analysis to determine differential expression across maize tissues. Microarray analysis for mts-siRNA sequences of normalized signal values for V8-V9 tassel, V10-V12 tassel, or combined signals from the other tissue for maize germplasm LH244 and 01DKD2 is presented in Tables 3-10. […] Signal value results are measured as relative signal values and standard error (p<0.05) is represented by (STDR). […] The mts-siRNA sequence corresponds to the sense or antisense strand of the corresponding mts-siRNA target sequence in the cDNA sequence. The mts-siRNA sequence may have a single nucleotide, a two nucleotide, or a three nucleotide mismatch with the aligned portion of the cDNA sequence, and the mts-siRNA sequence may align to the sense strand or antisense strand of the cDNA sequence. The mts-siRNA sequences provided here are found across different maize germplasms.

SEQ ID NO: 23: mts-siRNA sequence aligning to cDNA SEQ ID NO: 17 (CATCACCATGCACGGTCGTCGT; expressed or natural sequence)
01DKD2 V8-V9 Tassel relative signal value: 27
01DKD2 V10-V12 Tassel relative signal value: 318
01DKD2 Other Tissue relative signal value: 4.3
LH244 V8-V9 Tassel relative signal value: 183.5
LH244 V10-V12 Tassel relative signal value: 514
LH244 Other Tissue relative signal value: 2.6

SEQ ID NO: 24: mts-siRNA sequence aligning to cDNA SEQ ID NO: 17 (ATCACCATGCACGGTCGT; expressed or natural sequence)
01DKD2 V8-V9 Tassel relative signal value: 16
01DKD2 V10-V12 Tassel relative signal value: 174
01DKD2 Other Tissue relative signal value: 3
LH244 V8-V9 Tassel relative signal value: 104.5
LH244 V10-V12 Tassel relative signal value: 322
LH244 Other Tissue relative signal value: 7.7

SEQ ID NO: 25: mts-siRNA sequence aligning to cDNA SEQ ID NO: 17 (ACGACCGTGCATGGTGAT; expressed or natural sequence)
01DKD2 V8-V9 Tassel relative signal value: 56
01DKD2 V10-V12 Tassel relative signal value: 440
01DKD2 Other Tissue relative signal value: 2.3
LH244 V8-V9 Tassel relative signal value: 289
LH244 V10-V12 Tassel relative signal value: 824.3
LH244 Other Tissue relative signal value: 2.6

SEQ ID NO: 26: mts-siRNA sequence aligning to cDNA SEQ ID NO: 17 (CGCATGTCACATCGCCGTCCTC; expressed or natural sequence)
01DKD2 V8-V9 Tassel relative signal value: 10
01DKD2 V10-V12 Tassel relative signal value: 104
01DKD2 Other Tissue relative signal value: 3.8
LH244 V8-V9 Tassel relative signal value: 55.5
LH244 V10-V12 Tassel relative signal value: 175.7
LH244 Other Tissue relative signal value: 3.8

SEQ ID NO: 27: mts-siRNA sequence aligning to cDNA SEQ ID NO: 17 (CGGACATTTGCAGTTCTATGGT; expressed or natural sequence)
01DKD2 V8-V9 Tassel relative signal value: 73
01DKD2 V10-V12 Tassel relative signal value: 405.5
01DKD2 Other Tissue relative signal value: 1
LH244 V8-V9 Tassel relative signal value: 377.5
LH244 V10-V12 Tassel relative signal value: 581.7
LH244 Other Tissue relative signal value: 1.1

SEQ ID NO: 28: mts-siRNA sequence aligning to cDNA SEQ ID NO: 17 (GACATTTGCAGTTCTATGGTGT; expressed or natural sequence)
01DKD2 V8-V9 Tassel relative signal value: 29
01DKD2 V10-V12 Tassel relative signal value: 134.5
01DKD2 Other Tissue relative signal value: 3.8
LH244 V8-V9 Tassel relative signal value: 126.5
LH244 V10-V12 Tassel relative signal value: 248
LH244 Other Tissue relative signal value: 2.4

SEQ ID NO: 29: mts-siRNA sequence aligning to cDNA SEQ ID NO: 17 (CCGTGCATGGTGATGAATCC; expressed or natural sequence)
01DKD2 V8-V9 Tassel relative signal value: 86
01DKD2 V10-V12 Tassel relative signal value: 535.5
01DKD2 Other Tissue relative signal value: 4
LH244 V8-V9 Tassel relative signal value: 292.5
LH244 V10-V12 Tassel relative signal value: 886.7
LH244 Other Tissue relative signal value: 2.2

SEQ ID NO: 30: mts-siRNA sequence aligning to cDNA SEQ ID NO: 17 (CACCATGCACGGTCGTCGT; expressed or natural sequence)
01DKD2 V8-V9 Tassel relative signal value: 32
01DKD2 V10-V12 Tassel relative signal value: 282
01DKD2 Other Tissue relative signal value: 6.5
LH244 V8-V9 Tassel relative signal value: 173.5
LH244 V10-V12 Tassel relative signal value: 495.7
LH244 Other Tissue relative signal value: 4.2

SEQ ID NO: 31: mts-siRNA sequence aligning to cDNA SEQ ID NO: 17 (ACACGCATGTCACATCGCCGTC; expressed or natural sequence)
01DKD2 V8-V9 Tassel relative signal value: 0
01DKD2 V10-V12 Tassel relative signal value: 26.5
01DKD2 Other Tissue relative signal value: 2.8
LH244 V8-V9 Tassel relative signal value: 8
LH244 V10-V12 Tassel relative signal value: 49
LH244 Other Tissue relative signal value: 1.2

SEQ ID NO: 32: mts-siRNA sequence aligning to cDNA SEQ ID NO: 18 (TAGCCACACGGTCACGTTTGGAC; expressed or natural sequence)
01DKD2 V8-V9 Tassel relative signal value: 7.5
01DKD2 V10-V12 Tassel relative signal value: 516
01DKD2 Other Tissue relative signal value: 2.8
LH244 V8-V9 Tassel relative signal value: 376.5
LH244 V10-V12 Tassel relative signal value: 118
LH244 Other Tissue relative signal value: 2

SEQ ID NO: 33: mts-siRNA sequence aligning to cDNA SEQ ID NO: 18 (AGGGTGAATCGGATGTTGAGGTGG; expressed or natural sequence)
01DKD2 V8-V9 Tassel relative signal value: 4.5
01DKD2 V10-V12 Tassel relative signal value: 648.5
01DKD2 Other Tissue relative signal value: 2.8
LH244 V8-V9 Tassel relative signal value: 111.5
LH244 V10-V12 Tassel relative signal value: 1032.7
LH244 Other Tissue relative signal value: 17.8

SEQ ID NO: 34: mts-siRNA sequence aligning to cDNA SEQ ID NO: 18 (ACGTGCATATCGCCATCCTCTGCT; expressed or natural sequence)
01DKD2 V8-V9 Tassel relative signal value: 8.5
01DKD2 V10-V12 Tassel relative signal value: 982
01DKD2 Other Tissue relative signal value: 3.5
LH244 V8-V9 Tassel relative signal value: 848.5
LH244 V10-V12 Tassel relative signal value: 572.7
LH244 Other Tissue relative signal value: 3

SEQ ID NO: 35: mts-siRNA sequence aligning to cDNA SEQ ID NO: 18 (TAGCCACACGGTCACGTTTGGACG; expressed or natural sequence)
01DKD2 V8-V9 Tassel relative signal value: 4
01DKD2 V10-V12 Tassel relative signal value: 519
01DKD2 Other Tissue relative signal value: 2.8
LH244 V8-V9 Tassel relative signal value: 437
LH244 V10-V12 Tassel relative signal value: 117.7
LH244 Other Tissue relative signal value: 1.6

SEQ ID NO: 36: mts-siRNA sequence aligning to cDNA SEQ ID NO: 18 (CGTGCATATCGCCATCCTCTGCT; expressed or natural sequence)
01DKD2 V8-V9 Tassel relative signal value: 15.5
01DKD2 V10-V12 Tassel relative signal value: 1225.5
01DKD2 Other Tissue relative signal value: 4.3
LH244 V8-V9 Tassel relative signal value: 906.5
LH244 V10-V12 Tassel relative signal value: 606.7
LH244 Other Tissue relative signal value: 2.2

SEQ ID NO: 37: mts-siRNA sequence aligning to cDNA SEQ ID NO: 18 (CAGAGGATGGCGATATGCACGTTG; expressed or natural sequence)
01DKD2 V8-V9 Tassel relative signal value: 9.5
01DKD2 V10-V12 Tassel relative signal value: 1224.5
01DKD2 Other Tissue relative signal value: 3.3
LH244 V8-V9 Tassel relative signal value: 554
LH244 V10-V12 Tassel relative signal value: 553
LH244 Other Tissue relative signal value: 1.5

SEQ ID NO: 38: mts-siRNA sequence aligning to cDNA SEQ ID NO: 18 (CTCAACATCCGATTCACCCTCA; expressed or natural sequence)
01DKD2 V8-V9 Tassel relative signal value: 8.5
01DKD2 V10-V12 Tassel relative signal value: 1305.5
01DKD2 Other Tissue relative signal value: 3
LH244 V8-V9 Tassel relative signal value: 768.5
LH244 V10-V12 Tassel relative signal value: 1442.7
LH244 Other Tissue relative signal value: 1.4
